Test results reported in patent EP0274158B1, “Novel heterocycle-substituted diphosphonate compounds, pharmaceutical compositions, and methods of treating abnormal calcium and phosphate matabolism” (Norwich Eaton Pharmaceuticals, Inc., priority 1986, dated 1988).

Legend:
[1] = tested on: bone resorption; assay: Tablets given orally to a patient afflicted with Paget's disease (Example 7); format: in vivo; settings: 25 mg P per tablet, orally twice daily for 6 months, patient of approximately 70 kilograms
Protocol: Tablets are prepared by conventional methods, formulated as follows: […]

[2] = tested on: bone resorption; assay: Capsules given orally to a patient afflicted with osteoporosis (Example 6); format: in vivo; settings: 25 mg P per capsule, orally twice daily for 6 months, patient of approximately 70 kilograms
Protocol: Capsules are prepared by conventional methods, comprised as follows: […]

[3] = tested on: parathyroid hormone (PTH)-induced rise in serum total and ionized calcium levels; assay: Thyroparathyroidectomized (TPTX) rat model, in vivo bone resorption inhibition potency; set-up: species or system male Wistar rats; settings: subcutaneous injection, daily for 4 days, TPTX rats, PTH challenge; lowest dose that decreases the rise in serum calcium
Protocol: The compounds are evaluated for in vivo bone resportion inhibition potency by an animal model system known as the thyroparathyroidectomized (TPTX) rat model. The general principles of this model system are disclosed in Russell et al., Calcif. Tissue Research, 6, 183-196 (1970), and in Muhlbauer and Fleisch, Mineral Electrolyte Metab., 5, 296-303 (1981), the disclosures of which are incorporated herein by reference. The basic biochemical concept of the TPTX system is inhibition of the parathyroid hormone (PTH)-induced rise in serum total and ionized calcium levels by the respective bone active polyphosphonates.
Low calcium and low phosphorous diets used are prepared by Teklad^R Test Diets (Harlan Industries, Madison, Wisconsin 53711) in a pellet form of approximately 0.18% calcium and 0.22% phosphorous. The diets contain all the essential vitamins and minerals required for the rat, with the exception of calcium and phosphorous. The calcium and phosphorous levels of the pellets are verified analytically.
PTH is acquired as a powdered bovine extract (Sigma Chemical Co., P. O. Box 14508, St. Louis, Missouri, order #P-4410). PTH is prepared in 0.9% saline such that the final concentration is 100 µg PTH/ml, or approximately 200 U.S.P. units/ml. All solutions are filtered through a #4 Whatman Filter Paper and refiltered through a 0.45 µm Metricel ^R filter.
All solutions of compounds to be tested for bone resorption inhibition potency are prepared for subcutaneous injection in 0.9% normal saline and adjusted to pH 7.4 using NaOH and/or HCl. Dose solution calculation is made by considering the mass of powder (based on molecular weight, hydration) of the active material in mg/kg (body weight) that corresponds to mg P/kg. Concentrations are based on dosing 0.2 ml/100 grams of body weight. Typically, all compounds are administered at 0.01, 0.1, and 1.0 mg P/kg/day for 4 days in order to determine the lowest effective dose ("LED"). Where necessary the test is repeated, whereby the animals are administered with 0.5 LED in order to refine the determination of LED. Adjustments in dosage based on changes in body weight are made on a daily basis.
In this study 50 male Wistar rats weighing approximately 150-160 grams are thyroparathyroidectomized surgically by the breeder (Charles River Breeding Laboratories). All rats are double housed on arrival in suspended cages with Purina Laboratory Rodent Chow^R and tap water ad libitum. After acclimation to the laboratory environment for 3-5 days, the rats are placed on a low calcium, low phosphorous (.18%/.22%) diet (Teklad^R) and given 2% (W/V) calcium gluconate supplemented deionized water via water bottles.
On day three of low calcium diet, all rats are weighed. On day four, all rats are anesthetized with Ketaset^R (Ketamine Hydrochloride, 100 mg/ml, Bristol Myers), 0.10 ml/rat, and then bled from the retro-orbital venous plexus for serum total calcium analysis using Flame Atomic Absorption (FAA) or Nova 7+7 Automated Calcium Analyzer. All rats weighing less than 150 grams are eliminated from the study. Animals are then randomized statistically such that the mean total serum calcium for each group is the same. Only rats deemed hypocalcemic (total serum calcium ≦8.0 mg/dl) are placed in study groups comprising six animals per group.
Treatments with the various experimental compounds commence on day 6 and last through day 9 of the study. Dose solutions are prepared to be given at a constant rate of 0.2 ml/100 grams of body weight subcutaneously in the vental skin flap where the hind leg meets the torso. All rats are weighed and dosed daily. A 25 gauge 5/8" needle is used to administer drug, alternating right and left dose sites daily. On day 8, animals are changed to deionized, distilled water via water bottles. On day 9 all rats are fasted in the afternoon at approximately 4:0 P.M. On day 10 of study no treatment is given. […]

[4] = tested on: bone resorption; assay: Schenk model, in vivo bone resorption inhibition; set-up: species or system male Sprague Dawley rats; settings: subcutaneous injection, daily for 7 days, tibia metaphyseal trabecular bone content
Protocol: The compounds are evaluated for in vivo bone resorption inhibition and mineralization inhibition in an animal model system known in the field of bone metabolism as the Schenk Model. The general principles of this model system are disclosed in Shinoda et al., Calcif.
Preweaning 17-day-old (30 gms) male Sprague Dawley rats (Charles River Breeding Laboratories) are shipped with their mothers and placed in plastic cages with their mothers upon arrival. At 19 days of age, pups receiving Rat Chow and water ad libitum are randomly allocated into treatment or control groups comprising seven animals per group. On day 1 and again on day 7 all animals are given an intraperitoneal ("IP") injection of Calcein (1% solution in 0.9% saline solution; dosed at 0.2 ml/100 g body weight). On day 4 all animals are given an IP injection of tetracycline hydrochloride (1% solution in 0.9% saline solution; dosed at 0.2 ml/100 g body weight). These compounds label actively mineralizing bone and cartilage.
All solutions are prepared for subcutaneous injection in 0.9% normal saline and adjusted to pH 7.4 using NaOH and/or HCl. Dose solution calculation is made by considering the mass of powder (based on molecular weight, hydration) of the active material in mg/kg (body weight) that corresponds to mgP/kg. Concentrations are based on dosing 0.2 ml/100 g body weight. […] Compounds showing activity at 0.1 mg P/kg/day are then tested at logarithmic decrements down to 0.001 mg P/kg/day. Adjustments in dosage based on changes in body weight are made on a daily basis.
On day 8 after the start of dosing, all animals are sacrificed by IP overdose of pentabarbitol. Tibias are dissected free and placed in 70% ethyl alcohol. […] The tibia is sectioned longitudinally through the metaphyseal area. Specimens are stained on one surface with silver nitrate and mounted on microscope slides for evaluation with a Quantimet Image Analyzer (Cambridge Instruments, Inc.) using both incandescent and ultraviolet illumination. Metaphyseal trabecular bone content is measured in the region between the fluorescent label and the growth plate: expressed as percent of total area (bone + marrow). Epiphyseal growth plate width is obtained as the mean value of 10 equally-spaced measurements across the section.
Statistical evaluation of data is made using parametric and non-parametric analysis of variance and Wilcoxons rank sum test to determine a statistically significant effect compared to control animals.
The Schenk model provides data for in vivo bone resorption inhibition by the compounds.

[5] = tested on: hypercalcemia of malignancy; assay: Injectable solution in patients with hypercalcemia of malignancy (Example 8); format: in vivo; settings: 0.07 mg P in 1.0 ml saline, pH 7.4, one injection daily for 4 days, patients of approximately 70 kilograms
Protocol: Injectable solutions are prepared by conventional methods using 1.0 ml of physiological saline solution and 0.07 mg P of N-(2'-(3'-methyl)-piperidinylidene)-amino-methane diphosphonic acid, adjusted to pH = 7.4.

[6] = tested on: hamsters' incisors; settings: parenteral administration to hamsters; Landeck and Binus 1980; cited from earlier work
[7] = tested on: skeleton; settings: Technetium-99m labelled, bone scintigraphy; Unterspann 1976; cited from earlier work

Row | SMILES | Lowest Effective (Antiresorptive) Dose-TPTX [3] [mg P/kg] | Lowest Effective (Antiresorptive) Dose - Schenk; Schenk LED [4] [mg/P/kg] | other results
1 | O=P(O)(O)C(O)(CC1CCCCN1)P(=O)(O)O (stereo not shown) [2-(2'-piperidinyl)-1-hydroxy-ethane-1,1-diphosphonic acid] | – | – | bone resorption in a patient afflicted with Paget's disease [1]: substantially reduce bone resorption
2 | O=P(O)(O)C(CC1CCCCN1)P(=O)(O)O (stereo not shown) [2-(2'-piperidinyl)-EDP, 2-(2'-piperidinyl)-ethane-1,1-diphosphonic acid] | 0.01 | 0.01 | bone resorption in a patient afflicted with osteoporosis [2]: substantially reduce bone resorption
3 | NCCC(O)(P(=O)(O)O)P(=O)(O)O [APD, 3-amino propane-1-hydroxy-1,1-DP] | 0.1 | 0.1 | –
4 | O=P(O)(O)C(Cl)(Cl)P(=O)(O)O [Cl₂MDP, dichloromethane DP] | 1.0 | 1.0 | –
5 | CC(O)(P(=O)(O)O)P(=O)(O)O [EHDP, ethane-1-hydroxy-1,1-diphosphonic acid] | 1.0 | 1.0 | –
6 | O=P(O)(O)C(NC1=NCCCN1)P(=O)(O)O [N-(2'-(1',3'-diazinylidene))AMDP, N-(2'-(1',3'-diazinylidene))-aminomethane diphosphonic acid] | 0.001 | – | –
7 | CC1CCCN=C1NC(P(=O)(O)O)P(=O)(O)O (stereo not shown) [N-(2'-(3'-methyl)piperidinylidene)AMDP, N-(2'-(3'-methyl)-piperidinylidene)-amino-methane diphosphonic acid] | 0.001 | 0.001 | alleviation of hypercalcemia of malignancy [5]: appreciable alleviation of hypercalcemia of malignancy
8 | O=P(O)(O)C(N1CCCCC1)P(=O)(O)O [N-piperidinyl-methane-diphosphonic acid] | – | – | effect on the mineralization of the incisors [6]: Little or no effect on the mineralization of the incisors; skeleton activity compared with EHDP [7]: less skeleton activity than EHDP
